Laboratory results reported in patent publication US6660690B2, “Seed treatment with combinations of insecticides” (priority 2000, dated 2003).

Legend:
black cutworm larvae = assay: Black cutworm feeding damage on corn grown from treated seed or in treated soil (Reference Example 1); format: in vivo; details: for Plant Defol. 3 DAI / Plant Defol. 7 DAI / Plant Defol. 10 DAI: rating 1=no damage, 10=complete defoliation
Procedure: (§1) A lambda-cyhalothrin seed treatment formulation was prepared by diluting the WARRIOR® T insecticide (Zeneca Ag Products, Wilmington, Del.), which contains 11.4% lambda-cyhalothrin as the active ingredient, into water as a carrier. This formulation was applied for one minute at room temperature to twenty-five grams of Pioneer corn seed (Cultivar PN3394) in a rotostatic seed treater at a rate of 125 g, 250 g or 500 g active ingredient (Al) to 100 kg seed. The treated seeds were allowed to sit uncapped for four to twenty-four hours before planting.
(§2) Treated and untreated seeds (Pioneer hybrid PN3394) were planted in a soil mix consisting of Dupo silt loam, 30% Perlite, 20% coarse sand (WB-10 grade) in six groups of tubs (20 in. L×15 in. W×8 in. D). Twelve seeds were planted per tub and three tubs were planted for each treatment regimen. Soil applications of FORCE® 3GR, which contains 3% tefluthrin granule as the active ingredient, were used for two sets of tubs containing untreated seeds. The FORCE 3GR was applied either in-furrow or incorporated into a 5 inch band on the soil surface at the time of planting. The tubs were overhead irrigated until the plants were infested with black cutworm larvae.
The rate of application for the FORCE 3GR was reported in units of grams of the active ingredient per hectare (g/ha), while the rate of application of the WARRIOR T to the seeds was reported in units of grams of the active ingredient per 100 kilograms of the seeds (g/100 kg). Although the conversion of one of these units to the other will vary somewhat according to the type of seed that is being used, the size and weight of the seed, and the density of planting that is used—among other things—an approximate conversion for corn seed can be carried out as follows. Assuming a seed application rate of lambda cyhalothrin of, for example, 125 g/100 kg of seed and a planting density of 15 lbs seed/ac, about 14.7 acres can be planted with 100 kg of the seed. This is an effective application rate of about 8.5 g of lambda cyhalthrin per acre. At 2.47 ac/ha, the seed treatment level of 125 g/100 kg is approximately equivalent to a surface banding treatment at about 21 g/ha.
The corn plants were infested at 12 DAP, which corresponds to late growth stage V1 by placing two black cutworm larvae at ¾ instar on the soil surface near the base of the plant. Plants were rated 3, 7 and 10 days after infestation (DAI) for the number of cut plants, as well as damage from leaf feeding. The percent stand reduction due to plant cutting was calculated by dividing the number of cut plants into the number of plants present at infestation. The foliar feeding injury was evaluated using a rating scale of 1=no damage and 10=complete defoliation.

corn plants = assay: Vigor rating of corn plants at 12 DAP before infestation (indication of phytotoxicity); format: in vivo; details: rating 1=extremely low vigor, 10=highest
Procedure: as §1, §2
At twelve days after planting (DAP) but before infestation, the overall health of each plant was rated by looking at emergence, height and appearance. This vigor rating gives an indication of any phytotoxicity from the seed or soil treatment. A rating of 1 indicates extremely low vigor while 10 is the highest vigor rating.

## Cc1c(F)c(F)c(COC(=O)[C@@H]2[C@H](/C=C(\Cl)C(F)(F)F)C2(C)C)c(F)c1F (racemic) [Tefluthrin, (2,3,5,6-tetrafluoro-4-methylphenyl)-methyl-(1 alpha, 3 alpha)-(Z)-(±)-3-(2-chloro-3,3,3-trifluoro-1-propenyl)-2,2-dimethylcyclopropanecarboxylate]
Black cutworm larvae; soil granule banded 30 g/ha
  % Stand Reduct'n 3 DAI: 0.0%
  Plant Defol. 3 DAI: 1.7
  % Stand Reduct'n 7 DAI: 0.0%
  Plant Defol. 7 DAI: 1.7
  % Stand Reduct'n 10 DAI: 0.0%
  Plant Defol. 10 DAI: 0.3
Black cutworm larvae; soil granule in-furrow 30 g/ha
  % Stand Reduct'n 3 DAI: 33.9%
  Plant Defol. 3 DAI: 5.0
  % Stand Reduct'n 7 DAI: 48.0%
  Plant Defol. 7 DAI: 6.0
  % Stand Reduct'n 10 DAI: 48.0%
  Plant Defol. 10 DAI: 5.3
Corn plants; soil granule (FORCE 3GR) banded 30 g/ha
  Vigor at 12 DAP: 8.7
Corn plants; soil granule (FORCE 3GR) in-furrow 30 g/ha
  Vigor at 12 DAP: 9.0

## CC1(C)[C@H](C(=O)O[C@H](C#N)c2cccc(Oc3ccccc3)c2)[C@@H]1/C=C(\Cl)C(F)(F)F [λ-cyhalothrin, [1 alpha (s), 3 alpha(z)]-cyano(3-phenoxyphenyl) methyl-3-(2-chloro-3,3,3-trifluoro-1-propenyl)-2,2-dimethylcyclopropane carboxylate]
Black cutworm larvae; seed treatment 125 g/100 kg
  % Stand Reduct'n 3 DAI: 13.9%
  Plant Defol. 3 DAI: 4.3
  % Stand Reduct'n 7 DAI: 16.7%
  Plant Defol. 7 DAI: 5.0
  % Stand Reduct'n 10 DAI: 19.4%
  Plant Defol. 10 DAI: 3.3
Black cutworm larvae; seed treatment 250 g/100 kg
  % Stand Reduct'n 3 DAI: 3.0%
  Plant Defol. 3 DAI: 3.7
  % Stand Reduct'n 7 DAI: 3.0%
  Plant Defol. 7 DAI: 2.7
  % Stand Reduct'n 10 DAI: 3.0%
  Plant Defol. 10 DAI: 1.7
Black cutworm larvae; seed treatment 250 g/100 kg, listed as lambda-cyhalothrin
  % Stand Reduct'n 7 DAI: 3%
Black cutworm larvae; seed treatment 500 g/100 kg
  % Stand Reduct'n 3 DAI: 0.0%
  Plant Defol. 3 DAI: 2.0
  % Stand Reduct'n 7 DAI: 0.0%
  Plant Defol. 7 DAI: 2.3
  % Stand Reduct'n 10 DAI: 0.0%
  Plant Defol. 10 DAI: 1.0
Black cutworm larvae; seed treatment 500 g/100 kg, listed as lambda-cyhalothrin
  % Stand Reduct'n 7 DAI: 0%
Corn plants; seed treatment 125 g/100 kg
  Vigor at 12 DAP: 9.0
Corn plants; seed treatment 250 g/100 kg
  Vigor at 12 DAP: 8.3
Corn plants; seed treatment 500 g/100 kg
  Vigor at 12 DAP: 8.3
